Test [1] has as its target T1, DYRK1B (Homo sapiens, UniProt Q9Y463).
T1 construct: purchased Eurofins; host or cells: E. coli BL21-derived (T7 phage display) or HEK-293
In words: KdELECT kinase binding assay (Eurofins), DYRK1B. The settings on record: 11-point 3-fold dilution series, qPCR readout; read-out: Binding Affinity (Kd) DYRK1B. On the technique in general: Quantitative PCR measures a nucleic acid by following its amplification.

Test [2] has as its target T1, DYRK1B. In words: HiBiT split luciferase assay of targeted degradation of DYRK1B in Flp-In T-REx 293 cells. It is filed as cell-based. The settings on record: 300 nM compound, 24 h, HiBiT-tagged DYRK1B in Flp-In T-REx 293 cells, normalized to vehicle; read-out: Relative Degradation at 300 nM DYRK1B. From the text:
The Flp-In T-REx 293 Cell Line and the pcDNA5/FRT/TO vector (Invitrogen) were used to generate stable cell clones for tetracyclin-inducible expression of DYRK1A and DYRK1B. These cells contain a single stably integrated Flp recognition target (FRT) site, which allows for site-specific integration of the expression cassette by the Flp (Flippase) recombinase. DYRK1 constructs were designed to contain a C-terminal HiBiT tag for quantitative detection of HiBiT-tagged proteins in cellular lysates with the help a split luciferase assay (Nano-Glo HiBiT Lytic Detection System, Promega). To monitor the targeted degradation of DYRK1A or DYRK1B, cells were seeded in 96-well plates (10,000 cells/per well) and treated with doxycyclineinal concentration 2 μg/ml) to induce DYRK1 expression. Compounds with presumed PROTAC activity were administered 24 h after seeding. After further incubation for 24 h, cells were grossly and microscopically inspected for overt toxicity. Cells were lysed in 100 μL ice-cold passive lysis buffer (PLB, Promega) by orbital shaking (30 min on ice) before lysates were centrifuged in PCR tube (20 min 20,000 g, RT). A 10 μl aliquot of the supernatant was subjected to the HiBiT lytic assay. Luminescence was quantified in an Orion Microplate luminometer (Berthold Detection System, Germany). All compounds were tested in duplicate or triplicate wells (technical replicates) and at least two independent experiments. Relative degradation was calculated by normalization to vehicle-treated control samples.
On the technique in general: The HiBiT peptide binds its large partner to form an active luciferase.

Test [3] addresses T2, DYRK1A (Homo sapiens, UniProt Q13627).
T2 construct: purchased Eurofins; host or cells: E. coli BL21-derived (T7 phage display) or HEK-293
In words: KdELECT kinase binding assay (Eurofins), DYRK1A. As to conditions: 11-point 3-fold dilution series, qPCR readout; read-out: Binding Affinity (Kd) DYRK1A.

Test [4] has as its target T2, DYRK1A. In words: HiBiT split luciferase assay of targeted degradation of DYRK1A in Flp-In T-REx 293 cells. As to conditions: 300 nM compound, 24 h, HiBiT-tagged DYRK1A in Flp-In T-REx 293 cells, normalized to vehicle; read-out: Relative Degradation at 300 nM DYRK1A. The class given is cell-based.

The structures appear in SMILES notation. pKd: −log10 of the molar value.

T1 sequence (Q9Y463 whole entry, species assumed): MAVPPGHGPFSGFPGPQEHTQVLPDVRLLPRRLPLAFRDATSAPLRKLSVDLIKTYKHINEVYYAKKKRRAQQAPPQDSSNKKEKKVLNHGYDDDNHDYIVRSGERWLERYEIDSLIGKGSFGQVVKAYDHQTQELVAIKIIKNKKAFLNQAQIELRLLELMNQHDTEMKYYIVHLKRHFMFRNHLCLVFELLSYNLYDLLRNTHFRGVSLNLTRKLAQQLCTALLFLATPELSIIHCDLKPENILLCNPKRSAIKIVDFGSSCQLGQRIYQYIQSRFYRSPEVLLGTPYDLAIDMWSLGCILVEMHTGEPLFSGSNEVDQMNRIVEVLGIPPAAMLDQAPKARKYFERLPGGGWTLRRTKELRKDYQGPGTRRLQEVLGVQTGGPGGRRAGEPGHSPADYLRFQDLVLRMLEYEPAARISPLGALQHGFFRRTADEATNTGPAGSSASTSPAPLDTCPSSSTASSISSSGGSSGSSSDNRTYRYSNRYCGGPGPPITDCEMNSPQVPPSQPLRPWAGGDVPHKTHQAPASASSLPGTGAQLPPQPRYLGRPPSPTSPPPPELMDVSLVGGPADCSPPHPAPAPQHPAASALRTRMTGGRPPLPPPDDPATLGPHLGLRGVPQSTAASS

`Cc1nc2ccc(-c3ccnc(N)c3)nc2n1-c1ccc(N2CCN(CCOCCOCCC(=O)N3CCN(Cc4ccc(CNc5cccc6c5CN(C5CCC(=O)NC5=O)C6=O)cc4)CC3)CC2)c(F)c1` (stereo not shown) [Compound 10, 3-(4-((4-((4-(3-(2-(2-(4-(4-(5-(2-aminopyridin-4-yl)-2-methyl-3H-imidazo[4,5-b]pyridin-3-yl)-2-fluorophenyl)piperazin-1-yl)ethoxy)ethoxy)propanoyl)piperazin-1-yl)methyl)benzyl)amino)-1-oxoisoindolin-2-yl)piperidine-2,6-dione]: the negative logarithm of the Kd (pKd) (usually the negative decadic logarithm of the Kd, by convention in mol/L) in test [1] was 7.00 to 8.00; in test [3], > 8.00. In addition, the values for the inhibition at 0.3 µM in test [2] and in test [4] were < 30% and 30 to 60%, respectively.

Take `Cc1nc2ccc(-c3ccnc(N)c3)nc2n1-c1ccc(CN2CCN(CC#Cc3ccc(N4CCC(C(=O)N5CCC(n6cc(CNc7cccc8c7C(=O)N(C7CCC(=O)NC7=O)C8=O)cn6)CC5)CC4)nc3)CC2)cc1` (stereo not shown) [Compound 25, 4-(((1-(1-(1-(5-(3-(4-(4-(5-(2-aminopyridin-4-yl)-2-methyl-3H-imidazo[4,5-b]pyridin-3-yl)benzyl)piperazin-1-yl)prop-1-yn-1-yl)pyridin-2-yl)piperidine-4-carbonyl)piperidin-4-yl)-1H-pyrazol-4-yl)methyl)amino)-2-(2,6-dioxopiperidin-3-yl)isoindoline-1,3-dione]: the negative logarithm of the Kd (pKd) in test [1] and in test [3] was > 8.00 in each case. In addition, the inhibition at 0.3 µM in test [2] was 30 to 50%; in test [4] it was > 60%.

Take `Cc1nc2ccc(-c3ccnc(N)c3)nc2n1-c1ccc(N2CCN(CCOCCOCCOCCOCCNc3cccc4c3C(=O)N(C3CCC(=O)NC3=O)C4=O)CC2)c(F)c1` (stereo not shown) [Compound 7, 4-((14-(4-(4-(5-(2-aminopyridin-4-yl)-2-methyl-3H-imidazo[4,5-b]pyridin-3-yl)-2-fluorophenyl)piperazin-1-yl)-3,6,9,12-tetraoxatetradecyl)amino)-2-(2,6-dioxopiperidin-3-yl)isoindoline-1,3-dione, N,N-Diisopropylethylamine]: the negative-log Kd (pKd) in test [1] and in test [3] was > 8.00 throughout. Besides, the inhibition at 0.3 µM was in the range of 30 to 50% in test [2] and 30 to 60% in test [4].

As for `Cc1nc2ccc(-c3ccnc(N)c3)nc2n1-c1ccc(N2C[C@@H]3C[C@H]2CN3CC#Cc2ccc(N3CCC(C(=O)N4CCC(n5cc(CNc6cccc7c6C(=O)N(C6CCC(=O)NC6=O)C7=O)cn5)CC4)CC3)nc2)c(F)c1` (stereo partly drawn) [Compound 20, 4-(((1-(1-(1-(5-(3-((1S,4S)-5-(4-(5-(2-aminopyridin-4-yl)-2-methyl-3H-imidazo[4,5-b]pyridin-3-yl)-2-fluorophenyl)-2,5-diazabicyclo[2.2.1]heptan-2-yl)prop-1-yn-1-yl)pyridin-2-yl)piperidine-4-carbonyl)piperidin-4-yl)-1H-pyrazol-4-yl)methyl)amino)-2-(2,6-dioxopiperidin-3-yl)isoindoline-1,3-dione], the results for the pKd in test [1] and in test [3] were 7.00 to 8.00 and > 8.00, respectively. Also, the inhibition at 0.3 µM was < 30% in test [2] and 30 to 60% in test [4].

`Cc1nc2ccc(-c3ccnc(N)c3)nc2n1-c1ccc(N2CCN(CCC#Cc3ccc(N4CCC(C(=O)N5CCC(n6cc(CNc7cccc8c7C(=O)N(C7CCC(=O)NC7=O)C8=O)cn6)CC5)CC4)nc3)CC2)c(F)c1` (stereo not shown) [Compound 19, 4-(((1-(1-(1-(5-(4-(4-(4-(5-(2-aminopyridin-4-yl)-2-methyl-3H-imidazo[4,5-b]pyridin-3-yl)-2-fluorophenyl)piperazin-1-yl)but-1-yn-1-yl)pyridin-2-yl)piperidine-4-carbonyl)piperidin-4-yl)-1H-pyrazol-4-yl)methyl)amino)-2-(2,6-dioxopiperidin-3-yl)isoindoline-1,3-dione]: the pKd in test [1] and in test [3] was 7.00 to 8.00 throughout. Also, the inhibition at 0.3 µM in test [2] was > 50%; in test [4], > 60%.

For `Cc1nc2ccc(-c3ccnc(N)c3)nc2n1-c1ccc(N2C3CCC2CN(CC#Cc2ccc(N4CCC(C(=O)N5CCC(n6cc(CNc7cccc8c7C(=O)N(C7CCC(=O)NC7=O)C8=O)cn6)CC5)CC4)nc2)C3)c(F)c1` (stereo not shown) [Compound 21, 4-(((1-(1-(1-(5-(3-(8-(4-(5-(2-aminopyridin-4-yl)-2-methyl-3H-imidazo[4,5-b]pyridin-3-yl)-2-fluorophenyl)-3,8-diazabicyclo[3.2.1]octan-3-yl)prop-1-yn-1-yl)pyridin-2-yl)piperidine-4-carbonyl)piperidin-4-yl)-1H-pyrazol-4-yl)methyl)amino)-2-(2,6-dioxopiperidin-3-yl)isoindoline-1,3-dione], the negative-log Kd (pKd) is 6.00 to 7.00 in test [1] and 7.00 to 8.00 in test [3]. In addition, the figures for the inhibition at 0.3 µM in test [2] and in test [4] were < 30% and 30 to 60%, respectively.

In the case of `Cc1nc2ccc(-c3ccnc(N)c3)nc2n1-c1ccc(N2CCN(CCOCCOCCNc3cccc4c3C(=O)N(C3CCC(=O)NC3=O)C4=O)CC2)c(F)c1` (stereo not shown) [Compound 5, 4-((2-(2-(2-(4-(4-(5-(2-aminopyridin-4-yl)-2-methyl-3H-imidazo[4,5-b]pyridin-3-yl)-2-fluorophenyl)piperazin-1-yl)ethoxy)ethoxy)ethyl)amino)-2-(2,6-dioxopiperidin-3-yl)isoindoline-1,3-dione], the pKd in test [1] and in test [3] was > 8.00 throughout. Besides, the inhibition at 0.3 µM was < 30% in test [2] and 30 to 60% in test [4].

Consider `Cc1ncsc1-c1ccc(CNC(=O)[C@@H]2C[C@@H](O)CN2C(=O)[C@@H](NC(=O)CCOCCOCCOCCOCCOCCN2CCN(c3ccc(-n4c(C)nc5ccc(-c6ccnc(N)c6)nc54)cc3F)CC2)C(C)(C)C)cc1` [Compound 4, (2S,4R)-1-((S)-1-(4-(4-(5-(2-aminopyridin-4-yl)-2-methyl-3H-imidazo[4,5-b]pyridin-3-yl)-2-fluorophenyl)piperazin-1-yl)-20-(tert-butyl)-18-oxo-3,6,9,12,15-pentaoxa-19-azahenicosan-21-oyl)-4-hydroxy-N-(4-(4-methylthiazol-5-yl)benzyl)pyrrolidine-2-carboxamide], for which the negative-log Kd (pKd) in test [1] and in test [3] was > 8.00 in each case. The inhibition at 0.3 µM in test [2] and in test [4] was < 30% throughout.

On to `Cc1nc2ccc(-c3ccnc(N)c3)nc2n1-c1cc(F)c(N2CCN(CC#Cc3ccc(N4CCC(C(=O)N5CCC(n6cc(CNc7cccc8c7C(=O)N(C7CCC(=O)NC7=O)C8=O)cn6)CC5)CC4)nc3)CC2)c(F)c1` (stereo not shown) [Compound 23, 4-(((1-(1-(1-(5-(3-(4-(4-(5-(2-aminopyridin-4-yl)-2-methyl-3H-imidazo[4,5-b]pyridin-3-yl)-2,6-difluorophenyl)piperazin-1-yl)prop-1-yn-1-yl)pyridin-2-yl)piperidine-4-carbonyl)piperidin-4-yl)-1H-pyrazol-4-yl)methyl)amino)-2-(2,6-dioxopiperidin-3-yl)isoindoline-1,3-dione], for which the negative-log Kd (pKd) in test [1] and in test [3] was > 8.00 throughout. The inhibition at 0.3 µM in test [2] was > 50%; in test [4], > 60%.

With `Cc1nc2ccc(-c3ccnc(N)c3)nc2n1-c1ccc(N2CCN(CC#Cc3ccc(N4CCC(C(=O)N5CCC(n6cc(CNc7cccc8c7C(=O)N(C7CCC(=O)NC7=O)C8=O)cn6)CC5)CC4)nc3)CC2)c(C(F)(F)F)c1` (stereo not shown) [Compound 24, 4-(((1-(1-(1-(5-(3-(4-(4-(5-(2-aminopyridin-4-yl)-2-methyl-3H-imidazo[4,5-b]pyridin-3-yl)-2-(trifluoromethyl)phenyl)piperazin-1-yl)prop-1-yn-1-yl)pyridin-2-yl)piperidine-4-carbonyl)piperidin-4-yl)-1H-pyrazol-4-yl)methyl)amino)-2-(2,6-dioxopiperidin-3-yl)isoindoline-1,3-dione], the pKd in test [1] and in test [3] was 7.00 to 8.00 each time. For the same molecule, the inhibition at 0.3 µM in test [2] is < 30%; in test [4], > 60%.

The record behind these values is patent US20260183407A1, “DYRK/CLK PROTACS AND USES THEREOF” (Arizona Board of Regents on Behalf of the University of …, priority 2022, published 2026).
